From patent US8097585B2, “Methods of treating inflammation by administration of heme oxygenase-1 and products of heme degradation” (priority 2002, dated 2012)
Where a name gives a salt, the structure may show the parent alone.

How the values were obtained:
[1] = system: HO-1; assay: HO activity assay on spleen and heart of treated mice; assay type: in vivo, DBA/2J mice; conditions: 5 mg/kg i.p., one day after treatment
Procedure: HO activity assay. DBA/2J mice were given either no treatment or CoPPIX or ZnPPIX at a dose of 5 mg/kg, i.p. (n=10 per group). One day after the treatment, the animals were sacrificed, the spleen and the heart were excised, and tissue samples were frozen at −80° C. Frozen tissue samples were homogenized in ice-cold sucrose and Tris-HCl buffer. The microsomal pellet was obtained after centrifugation and re-suspended in MgCl2-potassium phosphate buffer. Sample protein was then incubated with the reaction mixture containing rat liver cytosol, hemin, glucose-6-phosphate, glucose-6-phosphate dehydrogenase and NADPH (Sigma-Aldrich Corporation, St. Louis, Mo.) for 60 minutes at 37° C. The generated bilirubin was measured by reacting with diazotized surfanilic acid to yield azobilirubin using spectrophotometer.

[2] = system: NF-κB; assay: EMSA of nuclear extracts, NF-κB DNA binding; assay type: cell-based; conditions: Jurkat T cells, PMA plus ionomycin, 100 μM biliverdin
Procedure: Nuclear protein extraction and electrophoretic mobility shift assay (EMSA). Jurkat T cells were cultured in 10% FCS supplemented RPMI 1640 with 50 nM phorbol myristyl acetate (PMA) and 2 μM ionomycin (both reagents from ICN Biomedicals) in the presence or absence of 100 μM biliverdin. Following 0, 2, and 4 hrs of stimulation, cells (30×10^6 cells for each group at each time points) were collected, washed twice with PBS, and pelleted. Nuclear and cytoplasmic extracts were prepared according to a modified Shapiro's method (Shapiro et al., DNA 7(1):47-55, 1988). Protein concentrations were determined by the Bradford assay. The following oligonucleotides (Invitrogen, Calsbad, Calif.) were used for EMSA:
NF-κB, (coding) 5′-[…]-3′ (SEQ ID NO:7),
(non-coding) 5′-[…]-[…]-3′ (SEQ ID NO:8).
Oligonucleotides were radioactively labeled with [^32P] ATP. The EMSA reactions were assembled as previously described (Usheva et al., Proc. Natl. Acad. Sci. USA 93(24):13571-6, 1996). Digital images from the EMSA radiographs were obtained using an image scanner.

[3] = system: transplanted islets in diabetic mice; assay: Syngeneic islet transplantation, minimal mass model; assay type: in vivo, DBA/2 mouse; conditions: 50 μmol/kg twice daily day-1 until day 7; 140 islets; control hyperglycemic >52 days
Procedure: The ability of exogenously administered biliverdin to protect transplanted islet was evaluated in the minimal mass model. Syngeneic islet transplantation was carried out in the DBA/2 mouse. Islets (140) were transplanted under the kidney capsule of diabetic mice. Test animals were treated with 50 μmol/kg biliverdin twice daily from day-1 until day 7. The controls were treated with vehicle only. Biliverdin treated animals returned to normoglycemia in 7.7±5.5 days; animals in control group remain hyperglycemic (>52 days).

[4] = system: iNOS; assay: Real time RT-PCR of graft muscularis after SITx, iNOS; assay type: in vivo, LEW rats
Procedure: Small Intestinal Transplantation. Orthotopic small intestinal transplantation (SITx) was performed in syngeneic Lewis rats. SITx with caval drainage was performed using a previously described procedure (Murase et al., in Handbook of Animal Models in Transplantation Research, Cramer et al., Eds. CRC Press, Boca Raton, Fla., pp. 203-213 (1994)). […] The graft was perfused via the aortic segment with 5 ml chilled Ringer's lactate solution, and the intestinal lumen was irrigated with 20 ml of cold saline solution containing 0.5% neomycin-sulfate (Sigma, St. Louis, Mo.). […]
SYBR green real time RT-PCR. The effects of administration of biliverdin on transplant-induced pro-inflammatory and anti-inflammatory gene expression were assessed in muscularis extracts by RT-PCR Biliverdin ([…], i.p.) was administered to both the donor and recipient three hours preoperatively. […] Equal aliquots (5 μg) of total RNA from each sample were quantified by spectrophotometry (wavelength […]) and aliquoted at a concentration of 40 ng/μl. Peak mRNA expression was quantified in duplicate by SYBR Green two-step, real-time RT-PCR. […] Real-time PCR data were plotted as the ΔRn fluorescence signal versus the cycle number. […] Quantification of mRNA expression was normalized to GAPDH and calculated relative to control using the comparative CT method (Schmittgen et al., J. Biochem. Biophys. Methods 46(1-2):69-8, 2000). […]

[5] = system: intestinal graft; assay: Intestinal microvascular blood flow (laser Doppler); assay type: in vivo, LEW rats; conditions: BV
Procedure: Measurement of Intestinal Blood Flow. Intestinal microvascular blood flow was monitored by placing the flat probe of a laser Doppler flowmeter (BLF 21D, Transonic Systems, Ithaca, N.Y.) on the serosal surface of the graft jejunum and ileum adjacent to the mesenteric border. Blood flows in SMA and marginal artery (MA) were also analyzed.
Measurement of Intestinal Blood Flow. Microvascular blood flow for in grafts preserved for 6 hours was measured using a laser Doppler flowmeter (BLF 21D, Transonic Systems, Ithaca, N.Y.) equipped with a flat probe. Intestinal microvascular blood flow was monitored by placing the probe on the serosal surface of the graft jejunum and ileum adjacent to the mesenteric border.

Compound	HO-1 enzymatic activity [1]	DNA binding of NF-κB [2]	time to return to normoglycemia [3] [days]	reduction of mean relative iNOS mRNA expression ([4]; BV treated rats, graft muscularis)	mRNA expression of iNOS or COX-2 ([4]; BV treatment of unoperated control animals)	microvascular blood flow following transplantation [5]
C=CC1=C(C)c2cc3[n-]c(cc4nc(cc5[n-]c(cc1n2)c(C)c5CCC(=O)[O-])C(CCC(=O)[O-])=C4C)c(C)c3C=C.[Co+2].[H+].[H+] [CoPP, Cobalt protoporphyrin]	significantly enhanced					
C=CC1=C(C)/C(=C/C2=NC(=C\c3[nH]c(/C=C4\NC(=O)C(C)=C4C=C)c(C)c3CCC(=O)O)/C(CCC(=O)O)=C2C)NC1=O [biliverdin, biliverdin dihydrochloride]		inhibited DNA binding	7.7 ± 5.5	approximately 50%	did not alter	had no effect
